From patent publication EP3825318A1, “OXALAMIDO-SUBSTITUTED TRICYCLIC INHIBITORS OF HEPATITIS B VIRUS” (priority 2019, dated 2021)

System: HBV
Test: Anti-HBV activity in vitro: extracellular HBV DNA by qPCR in HepAD38 cells
Assay type: cell-based
Settings: Hepatitis B virus, 96 hours incubation, extracellular HBV DNA by direct qPCR, read-out: HBV inh EC50
Excerpt: HepAD38 cell line (Ladner et al., Antimicrob Agents Chemother, 1997, 41, 1715-20) was used for HBV inhibition assays. HepAD38 is a subclone, derived from Hepatoblastoma cell line HepG2 (ATCC® Number: HB-8065™), that expresses HBV genome under the transcriptional control of a tetracycline-responsive promoter in a TET-OFF system: addition of tetracycline (TET) or doxycycline suppresses HBV replication, while its removal switches on the process allowing HBV viral particles release in the cell supernatant. HepAD38 cell line is maintained in DMEM/F12, supplemented with 10% of fetal bovine serum, 1% of glutamine, 1% of penicillin/streptomycin, 0.4 mg/ml G418 and 0,3 ug/ml tetracycline. For the HBV inhibition assay, doxycycline-free medium is used in order to allow virion production.
HBV inhibition activity in vitro was performed in 96 multiwell plates. During the initial (primary) screening, compounds were first tested in triplicates at concentrations of 0.02 µM, 0.1µM, 0.5µM and 1µM. For selected compounds, an 8-point dose-response curve was obtained using 1:2 serial dilutions (starting from 0.01µM, 0.1µM, 0.4µM or 5 µM, depending on the degree of inhibition observed during the primary screening). From the dose-response curves, half maximal effective concentration (EC50) could be calculated (see also below).
In more detail, compounds - typically dissolved in DMSO stock solutions - were diluted to 2x the final desired concentration in 100 µl of the above medium (without doxycycline) and plated in three replicates in the 96-well plates.
Simultaneously, HepAD38 cells - extensively pre-washed in tetracycline-free medium in order to induce HBV production - were suspended at 2^∗10^4 cells in 100 µl of tetracycline-free medium and added to each well of the plate, to yield a final assay volume of 200 µl DMSO - used for stock solutions and compounds dilutions - which was always present in the assays at a final concentration of 0.5%.
Plates were then incubated 96 hours at 37°C and then subjected to cell viability assays and extracellular HBV quantification, in order to evaluate both the cytotoxic potential and the antiviral activity of compounds. Cytotoxicity was assessed by a commercial fluorescence assay that measures the metabolic activity of cells, directly related to cell viability (Cell Titer Blue, Promega). Anti-HBV activity was evaluated by quantification of extracellular HBV DNA with direct qPCR. In particular, supernatant was collected and centrifuged for cell debris clarification, viral DNA was extracted from virions by addition of lysis buffer (1 mM 1,4-dithiothreitol, 0.2% sodium dodecyl sulphate) and incubated at 95°C for 10 min. Samples were then diluted 1:40 and real time PCR amplification was performed with SYBR green assay (Power SYBR™ Green PCR Master Mix-Thermo Fisher Scientific) and specific HBV primer (HBV-DF:5'-[…]-3' (SEQ ID No. 1), HBV-DR:5'-[…]-3' (SEQ ID No. 2)).
Antiviral activity data for each compound are reported as EC50 threshold value (see Table 1 legend). Excel and Graphpad Prism programs are typically used for data elaboration and EC50 calculation.

Question: For `C[C@@H](NC(=O)C(=O)N1C[C@H]2COc3c(cn(C)c3C(=O)Nc3ccc(F)c(Cl)c3)S(=O)(=O)N[C@H]2C1)C(F)(F)F` [Example E1, (3aR,10aR)-N-(3-chloro-4-fluorophenyl)-7-methyl-2-(2-oxo-2-(((R)-1,1,1-trifluoropropan-2-yl)amino)acetyl)-2,3,3a,4,10,10a-hexahydro-1H,7H-dipyrrolo[3,4-b:3',4'-f][1,4,5]oxathiazocine-8-carboxamide 5,5-dioxide], which EC50 is on record?
Answer: The EC50 was less than 500 nM.

Question: For `C[C@@H](NC(=O)C(=O)N1C[C@H]2COc3c(cn(C)c3C(=O)Nc3ccc(F)c(F)c3)S(=O)(=O)N[C@H]2C1)C(F)(F)F` [Example E2, (3aR,10aR)-N-(3,4-difluorophenyl)-7-methyl-2-(2-oxo-2-(((R)-1,1,1-trifluoropropan-2-yl)amino)acetyl)-2,3,3a,4,10,10a-hexahydro-1H,7H-dipyrrolo[3,4-b:3',4'-f][1,4,5]oxathiazocine-8-carboxamide 5,5-dioxide], which EC50 is on record?
Answer: The EC50 was less than 500 nM.

Question: How did the EC50 turn out when `C[C@@H](NC(=O)C(=O)N1C[C@H]2COc3c(cn(C)c3C(=O)Nc3ccc(F)c(C(F)F)c3)S(=O)(=O)N[C@H]2C1)C(F)(F)F` [Example E3, (3aR,10aR)-N-(3-(difluoromethyl)-4-fluorophenyl)-7-methyl-2-(2-oxo-2-(((R)-1,1,1-trifluoropropan-2-yl)amino)acetyl)-2,3,3a,4,10,10a-hexahydro-1H,7H-dipyrrolo[3,4-b:3',4'-f][1,4,5]oxathiazocine-8-carboxamide 5,5-dioxide] was run?
Answer: The EC50 was less than 500 nM.

Question: How did the EC50 turn out when `C[C@@H](NC(=O)C(=O)N1C[C@H]2COc3c(cn(C)c3C(=O)Nc3ccc(F)c(C(F)(F)F)c3)S(=O)(=O)N[C@H]2C1)C(F)(F)F` [Example E4, (3aR,10aR)-N-(4-fluoro-3-(trifluoromethyl)phenyl)-7-methyl-2-(2-oxo-2-(((R)-1,1,1-trifluoropropan-2-yl)amino)acetyl)-2,3,3a,4,10,10a-hexahydro-1H,7H-dipyrrolo[3,4-b:3',4'-f][1,4,5]oxathiazocine-8-carboxamide 5,5-dioxide] was run?
Answer: The EC50 was less than 500 nM.

Question: Which EC50 does the source give for `C[C@@H](NC(=O)C(=O)N1C[C@H]2COc3c(c(Cl)n(C)c3C(=O)Nc3ccc(F)c(Cl)c3)S(=O)(=O)N[C@H]2C1)C(F)(F)F` [Example E5, (3aR,10aR)-6-chloro-N-(3-chloro-4-fluorophenyl)-7-methyl-2-(2-oxo-2-(((R)-1,1,1-trifluoropropan-2-yl)amino)acetyl)-2,3,3a,4,10,10a-hexahydro-1H,7H-dipyrrolo[3,4-b:3',4'-f][1,4,5]oxathiazocine-8-carboxamide 5,5-dioxide] here?
Answer: The EC50 was less than 500 nM.

Question: For `C[C@@H](NC(=O)C(=O)N1C[C@H]2COc3c(c(Cl)n(C)c3C(=O)Nc3ccc(F)c(F)c3)S(=O)(=O)N[C@H]2C1)C(F)(F)F` [Example E6, (3aR,10aR)-6-chloro-N-(3,4-difluorophenyl)-7-methyl-2-(2-oxo-2-(((R)-1,1,1-trifluoropropan-2-yl)amino)acetyl)-2,3,3a,4,10,10a-hexahydro-1H,7H-dipyrrolo[3,4-b:3',4'-f][1,4,5]oxathiazocine-8-carboxamide 5,5-dioxide], which EC50 is on record?
Answer: Its EC50 is less than 500 nM.

Question: With `C[C@@H](NC(=O)C(=O)N1C[C@H]2COc3c(c(Cl)n(C)c3C(=O)Nc3ccc(F)c(C(F)F)c3)S(=O)(=O)N[C@H]2C1)C(F)(F)F` [Example E7, (3aR,10aR)-6-chloro-N-(3-(difluoromethyl)-4-fluorophenyl)-7-methyl-2-(2-oxo-2-(((R)-1,1,1-trifluoropropan-2-yl)amino)acetyl)-2,3,3a,4,10,10a-hexahydro-1H,7H-dipyrrolo[3,4-b:3',4'-f][1,4,5]oxathiazocine-8-carboxamide 5,5-dioxide] as the compound, how does the EC50 read?
Answer: The EC50 was less than 500 nM.

Question: How did the EC50 turn out when `C[C@@H](NC(=O)C(=O)N1C[C@H]2COc3c(c(Cl)n(C)c3C(=O)Nc3ccc(F)c(C(F)(F)F)c3)S(=O)(=O)N[C@H]2C1)C(F)(F)F` [Example E8, (3aR,10aR)-6-chloro-N-(4-fluoro-3-(trifluoromethyl)phenyl)-7-methyl-2-(2-oxo-2-(((R)-1,1,1-trifluoropropan-2-yl)amino)acetyl)-2,3,3a,4,10,10a-hexahydro-1H,7H-dipyrrolo[3,4-b:3',4'-f][1,4,5]oxathiazocine-8-carboxamide 5,5-dioxide] was run?
Answer: The EC50 was less than 500 nM.

Question: How did the EC50 turn out when `Cc1cc(NC(=O)c2c3c(c(Cl)n2C)S(=O)(=O)N[C@H]2CN(C(=O)C(=O)N[C@H](C)C(F)(F)F)C[C@H]2CO3)ccc1F` [Example E9, (3aR,10aR)-6-chloro-N-(4-fluoro-3-methylphenyl)-7-methyl-2-(2-oxo-2-(((R)-1,1,1-trifluoropropan-2-yl)amino)acetyl)-2,3,3a,4,10,10a-hexahydro-1H,7H-dipyrrolo[3,4-b:3',4'-f][1,4,5]oxathiazocine-8-carboxamide 5,5-dioxide] was run?
Answer: The EC50 was less than 500 nM.
